In PMC11784200, “Insights into antibiotic resistance promoted by quinolone exposure” (Antimicrobial Agents and Chemotherapy, 2024):
Converted amounts (≈) assume the structure as drawn. Where two headings read alike, the source gives them in different places.

Columns and labels:
[1] = tested on: E. coli colonies that became resistant to CHL after CIP treatment; type: cell-based
[2] = tested on: E. coli marR mutant; assay: CHL MIC of marR mutant; type: cell-based; conditions: partial deletion of marR in WT E. coli
Method: (§1) Minimum inhibitory concentration (MIC) values were determined in triplicate as described ([55]). […] All compounds were purchased from Sigma.

[3] = tested on: E. coli MLS83L; assay: Broth-based MIC, MLS83L; type: cell-based; conditions: Escherichia coli
Method: as §1

[4] = tested on: MG1655 ∆recA; assay: Broth-based MIC, ∆recA; type: cell-based, E. coli; conditions: Escherichia coli
Method: as §1

[5] = tested on: MG1655 lexA(S119A); assay: Broth-based MIC, lexA(S119A); type: cell-based, E. coli; conditions: Escherichia coli
Method: as §1

[6] = tested on: MG1655 ∆dinB; assay: Broth-based MIC, ∆dinB; type: cell-based, E. coli; conditions: Escherichia coli
Method: as §1

[7] = tested on: MG1655 ∆polB; assay: Broth-based MIC, ∆polB; type: cell-based, E. coli; conditions: Escherichia coli
Method: as §1

[8] = tested on: MG1655 ∆umuD; assay: Broth-based MIC, ∆umuD; type: cell-based, E. coli; conditions: Escherichia coli
Method: as §1

[9] = tested on: MG1655 ΔdinB ΔpolB ΔumuD; assay: Broth-based MIC, ΔdinB ΔpolB ΔumuD; type: cell-based, E. coli; conditions: Escherichia coli
Method: as §1

[10] = colony 1, plates with 2× MIC after 24 h on LB without selection
[11] = colony 2, plates with 2× MIC after 24 h on LB without selection
[12] = colony 3, plates with 2× MIC after 24 h on LB without selection
[13] = colony 4, plates with 2× MIC after 24 h on LB without selection
[14] = colony 5, plates with 2× MIC after 24 h on LB without selection
[15] = colony 6, plates with 2× MIC after 24 h on LB without selection
[16] = colony 7, plates with 2× MIC after 24 h on LB without selection
[17] = colony 8, plates with 2× MIC after 24 h on LB without selection
[18] = colony 9, plates with 2× MIC after 24 h on LB without selection
[19] = colony 10, plates with 2× MIC after 24 h on LB without selection
[20] = colony 11, plates with 2× MIC after 24 h on LB without selection
[21] = colony 12, plates with 2× MIC after 24 h on LB without selection
[22] = colony 13, plates with 2× MIC after 24 h on LB without selection
[23] = colony 14, plates with 2× MIC after 24 h on LB without selection
[24] = colony 15, plates with 2× MIC after 24 h on LB without selection
[25] = colony 16, plates with 2× MIC after 24 h on LB without selection
[26] = colony 17 (first line so numbered, r20), plates with 2× MIC after 24 h on LB without selection
[27] = colony 17 (second line so numbered, r21), plates with 2× MIC after 24 h on LB without selection
[28] = colony 19, plates with 2× MIC after 24 h on LB without selection
[29] = colony 20, plates with 2× MIC after 24 h on LB without selection
[30] = colony 21, plates with 2× MIC after 24 h on LB without selection
[31] = colony 22, plates with 2× MIC after 24 h on LB without selection
[32] = colony 23, plates with 2× MIC after 24 h on LB without selection
[33] = colony 24, plates with 2× MIC after 24 h on LB without selection
[34] = colony 25, plates with 2× MIC after 24 h on LB without selection
[35] = colony 26, plates with 2× MIC after 24 h on LB without selection
[36] = colony 27, plates with 2× MIC after 24 h on LB without selection

| Compound | Antibiotic resistance [1, 10] | Antibiotic resistance [1, 11] | Antibiotic resistance [1, 12] | Antibiotic resistance [1, 13] | Antibiotic resistance [1, 14] | Antibiotic resistance [1, 15] | Antibiotic resistance [1, 16] | Antibiotic resistance [1, 17] | Antibiotic resistance [1, 18] | Antibiotic resistance [1, 19] | Antibiotic resistance [1, 20] | Antibiotic resistance [1, 21] | Antibiotic resistance [1, 22] | Antibiotic resistance [1, 23] | Antibiotic resistance [1, 24] | Antibiotic resistance [1, 25] | Antibiotic resistance [1, 26] | Antibiotic resistance [1, 27] | Antibiotic resistance [1, 28] | Antibiotic resistance [1, 29] | further results |
| --- | --- | --- | --- | --- | --- | --- | --- | --- | --- | --- | --- | --- | --- | --- | --- | --- | --- | --- | --- | --- | --- |
| [H]/N=C(/N)N[C@H]1[C@H](O)[C@@H](O)[C@H](O[C@@H]2O[C@@H](C)[C@](O)(C=O)[C@H]2O[C@@H]2O[C@@H](CO)[C@H](O)[C@@H](O)[C@@H]2NC)[C@@H](N/C(N)=N\[H])[C@@H]1O [STR, streptomycin] | No | No | No | Yes | No | No | No | No | No | No | No | No | No | No | No | No | No | No | No | No | Antibiotic resistance [1, 30]: No; Antibiotic resistance [1, 31]: No; Antibiotic resistance [1, 32]: No; Antibiotic resistance [1, 33]: No; Antibiotic resistance [1, 34]: No; Antibiotic resistance [1, 35]: No; Antibiotic resistance [1, 36]: No |
| O=C(N[C@H](CO)[C@H](O)c1ccc([N+](=O)[O-])cc1)C(Cl)Cl [CHL, chloramphenicol] | No | No | Yes | Yes | Yes | Yes | Yes | Yes | Yes | Yes | Yes | Yes | Yes | Yes | Yes | Yes | Yes | Yes | Yes | Yes | Antibiotic resistance [1, 30]: Yes; Antibiotic resistance [1, 31]: Yes; Antibiotic resistance [1, 32]: Yes; Antibiotic resistance [1, 33]: Yes; Antibiotic resistance [1, 34]: Yes; Antibiotic resistance [1, 35]: Yes; Antibiotic resistance [1, 36]: Yes; Colonies that retained resistance ([1]; of 27 CHL-resistant colonies from CIP treatment, cultured without selection): 25; Increase in the MIC compared to the WT strain [2]: eightfold |
| CO[C@H]1/C=C/O[C@@]2(C)Oc3c(C)c(O)c4c(O)c(c(/C=N/N5CCN(C)CC5)c(O)c4c3C2=O)NC(=O)/C(C)=C\C=C\[C@H](C)[C@H](O)[C@@H](C)[C@@H](O)[C@@H](C)[C@H](OC(C)=O)[C@@H]1C [RIF, rifampin] | – | – | – | – | – | – | – | – | – | – | – | – | – | – | – | – | – | – | – | – | Antibiotic resistance [1]: No |
| COc1cc(Cc2cnc(N)nc2N)cc(OC)c1OC [TMP, trimethoprim] | – | – | – | – | – | – | – | – | – | – | – | – | – | – | – | – | – | – | – | – | Antibiotic resistance [1]: No and Yes |
| CC1(C)S[C@@H]2[C@H](NC(=O)[C@H](N)c3ccccc3)C(=O)N2[C@H]1C(=O)O [AMP, ampicillin] | No | No | No | No | No | Yes | No | No | No | No | No | No | No | No | No | No | No | No | No | No | Antibiotic resistance [1, 30]: No; Antibiotic resistance [1, 31]: No; Antibiotic resistance [1, 32]: No; Antibiotic resistance [1, 33]: No; Antibiotic resistance [1, 34]: No; Antibiotic resistance [1, 35]: No; Antibiotic resistance [1, 36]: No |
| CN(C)[C@@H]1C(O)=C(C(N)=O)C(=O)[C@@]2(O)C(O)=C3C(=O)c4c(O)cccc4[C@@](C)(O)[C@H]3C[C@@H]12 [TET, tetracycline] | – | – | – | – | – | – | – | – | – | – | – | – | – | – | – | – | – | – | – | – | Antibiotic resistance [1]: No and Yes |
| O=C(O)c1cn(C2CC2)c2cc(N3CCNCC3)c(F)cc2c1=O [CIP, ciprofloxacin] | – | – | – | – | – | – | – | – | – | – | – | – | – | – | – | – | – | – | – | – | MIC [3]: 0.256 µg/mL (≈ 0.773 µM); MIC [4]: 0.006 µg/mL (≈ 0.0181 µM); MIC [5]: 0.008 µg/mL (≈ 0.0241 µM); MIC [6]: 0.032 µg/mL (≈ 0.0966 µM); MIC [7]: 0.032 µg/mL (≈ 0.0966 µM); MIC [8]: 0.021 µg/mL (≈ 0.0634 µM); MIC [9]: 0.032 µg/mL (≈ 0.0966 µM) |
| NC[C@H]1O[C@H](O[C@H]2[C@H](O)[C@@H](O[C@H]3O[C@H](CO)[C@@H](O)[C@H](N)[C@H]3O)[C@H](N)C[C@@H]2N)[C@H](O)[C@@H](O)[C@@H]1O [KAN, kanamycin] | – | – | – | – | – | – | – | – | – | – | – | – | – | – | – | – | – | – | – | – | Antibiotic resistance [1]: No |
| Oc1cc(Cl)ccc1Oc1ccc(Cl)cc1Cl [TRI, triclosan] | No | No | Yes | No | No | No | Yes | Yes | No | Yes | No | No | No | No | No | No | No | No | No | No | Antibiotic resistance [1, 30]: No; Antibiotic resistance [1, 31]: No; Antibiotic resistance [1, 32]: No; Antibiotic resistance [1, 33]: No; Antibiotic resistance [1, 34]: No; Antibiotic resistance [1, 35]: No; Antibiotic resistance [1, 36]: No |
